Activity calls are given as the source filed them. No cut-off for these calls is given here.
Tests used:
[1] = test system: RAW264.7; assay: Antiinflammatory activity against LPS-stimulated mouse RAW264.7 cells assessed as inhibition of NO production preincubated with compound for 2 hrs followed by LPS stimulation and measured after 24 hrs by Griess reagent based analysis; assay type: functional, cell-based; details: dose 10-40 µM, time 26.0 hrs
[2] = test system: RAW264.7; assay: Cytotoxicity against mouse RAW264.7 cells assessed as cell viability by MTT assay; assay type: functional, cell-based
[3] = test system: A549; assay: Anticancer activity against human A549 cells assessed as inhibition of cell growth incubated for 48 hrs by MTT assay; assay type: functional, cell-based; details: A549, 48 h
[4] = test system: NCI-H1975; assay: Anticancer activity against human NCI-H1975 cells assessed as inhibition of cell growth incubated for 48 hrs by MTT assay; assay type: functional, cell-based; details: NCI-H1975, 48 h
[5] = test system: MDA-MB-231; assay: Anticancer activity against human MDA-MB-231 cells assessed as inhibition of cell growth incubated for 48 hrs by MTT assay; assay type: functional, cell-based; details: MDA-MB-231, 48 h
[6] = test system: RAW264.7; assay: Antiinflammatory activity against LPS-stimulated mouse RAW264.7 cells assessed as suppression of NO secretion at 20 uM preincubated with compound for 2 hrs followed by LPS stimulation and measured after 24 hrs by Griess reagent based assay relative to control; assay type: functional; details: time 26 hrs
[7] = test system: RAW264.7; assay: Antiinflammatory activity against LPS-stimulated mouse RAW264.7 cells assessed as downregulation of LPS-induced iNOS expression preincubated with compound for 2 hrs followed by LPS stimulation and measured after 24 hrs by Western blot analysis; assay type: functional, cell-based; details: dose 10-40 µM, time 26.0 hrs
[8] = test system: MCF7; assay: Anticancer activity against human MCF7 cells assessed as inhibition of cell growth incubated for 48 hrs by MTT assay; assay type: functional, cell-based; details: MCF7, 48 h

## CC(C)c1cc2c(cc1O)[C@@]1(C)CCC[C@](C)(CO)[C@@H]1CC2
[1]
  inhibition: Dose-Dependent Effect

## C=C1CC[C@@H]2[C@](C)(CO)CCC[C@@]2(C)C1CCC1=CCOC1=O (stereo partly specified)
[2]
  Activity: inactive

## CC(=O)O[C@H]1C(=O)[C@@]2(C)[C@H]([C@H](OC(=O)c3ccccc3)[C@]3(O)C[C@H](OC(=O)[C@H](O)[C@@H](NC(=O)c4ccccc4)c4ccccc4)C(C)=C1C3(C)C)[C@]1(OC(C)=O)CO[C@@H]1C[C@@H]2O [PACLITAXEL]
[3]
  IC50: 0.018 µM
[4]
  IC50: 0.028 µM
[5]
  IC50: 0.03 µM

## CC1(C)CC[C@]2(C(=O)O)CC[C@]3(C)C(=CCC4[C@@]5(C)C[C@@H](O)[C@@H](O)C(C)(C)[C@@H]5CC[C@]43C)C2C1 (stereo partly specified)
[2]
  Activity: inactive

## CC(C)c1cc2c(cc1O)CC[C@H]1C(C)(C)[C@@H](O)CC[C@]21C
[2]
  Activity: inactive
[1]
  inhibition: Dose-Dependent Effect
[6]
  Activity: 91%
[7]
  Activity: Dose-Dependent Effect

## CC(C)C(=O)OC1=C[C@@]2(CO)C(CC[C@]3(C)C2CC=C2C4[C@](C(=O)O)(CC[C@@H](C)[C@@]4(C)O)CC[C@]23C)C(C)(C)C1 (stereo partly specified)
[2]
  Activity: inactive

## COc1cc2c(cc1C(C)C)CC[C@H]1[C@@](C)(C(=O)O)CCC[C@]21C
[2]
  Activity: inactive

## C=C1CC[C@@H]2[C@](C)(C(=O)O)CCC[C@@]2(C)C1CCC1=CCOC1=O (stereo partly specified)
[2]
  Activity: inactive

## COc1cc(/C=C/C(=O)O[C@H]2[C@H](O)C[C@]3(C)C4CC=C5C6CC(C)(C)CC[C@]6(C(=O)O)CC[C@@]5(C)[C@]4(C)CC[C@H]3C2(C)C)ccc1O (stereo partly specified)
[2]
  Activity: inactive

## CC(C)c1cc2c(cc1O)[C@@]1(C)CC[C@H](O)[C@](C)(C=O)[C@@H]1CC2
[2]
  Activity: inactive
[6]
  Activity: 95%

## C=C1C(=O)[C@@]23CC[C@@H]4C(C)(C)C(=O)CC[C@@]4(C)[C@@H]2CC[C@@H]1C3
[2]
  Activity: inactive
[3]
  IC50: > 10 µM
[4]
  IC50: > 10 µM
[8]
  IC50: > 10 µM
[5]
  IC50: 8.4 µM

## CC(C)[C@@]1(O)CCC2=C(C1)C(=O)C[C@H]1C(C)(C)CC[C@H](O)[C@]21C
[2]
  Activity: inactive
[1]
  inhibition: Dose-Dependent Effect

## CC(C)c1cc2c(cc1O)[C@@]1(C)CC[C@H](O)C(C)(C)[C@@H]1CC2
[2]
  Activity: inactive

## C[C@@H]1CC[C@]2(C(=O)O)CC[C@]3(C)C(=CCC4[C@@]5(C)C[C@@H](O)OCC(C)(C)C5CC[C@]43C)C2[C@]1(C)O (stereo partly specified)
[2]
  Activity: inactive

## CC(C)c1c(O)ccc2c1CC[C@H]1C(C)(C)C(=O)CC[C@]21C
[2]
  Activity: inactive
[1]
  inhibition: Dose-Dependent Effect

## CC(=O)[C@@H](C)CC[C@@]1(C(=O)O)C=C2C=CC3[C@@]4(C)C(C(=O)O)=CC(C)(C)[C@@H]4CC[C@@]3(C)[C@]2(C)CC1 (stereo partly specified)
[2]
  Activity: inactive

## CC(C)c1c(O)ccc2c1CC[C@H]1[C@@](C)(C(=O)O)CCC[C@]21C
[2]
  Activity: inactive
[1]
  inhibition: Dose-Dependent Effect

## CC(C)c1cc2c(cc1O)CC[C@H]1[C@](C)(CO)CCC[C@]21C
[2]
  Activity: inactive
[1]
  inhibition: Dose-Dependent Effect
[7]
  Activity: Dose-Dependent Effect

## C=C1C(=O)[C@]23C[C@H]1CC[C@H]2[C@]1(C)CC[C@@H](O)C(C)(C)[C@H]1C[C@@H]3OC(C)=O
[2]
  Activity: inactive
[3]
  IC50: 4.7 µM
[4]
  IC50: 6.3 µM
[8]
  IC50: 7.4 µM
[5]
  IC50: 6.6 µM

## CC(C)c1cc2c(cc1O)[C@@]1(C)CCCC(C)(C)[C@@H]1CC2=O
[2]
  Activity: inactive

## C=C1CC[C@@H]2C(C)(C)[C@H](O)CC[C@@]2(C)C1CCC1=CCOC1=O (stereo partly specified)
[2]
  Activity: inactive

## C=C1[C@@H]2CC[C@H]3[C@]4(C)CC[C@@H](O)C(C)(C)[C@H]4C[C@@H](O)[C@]3(C2)[C@@H]1O
[2]
  Activity: inactive

## C=C1[C@@H]2CC[C@H]3[C@]4(C)CC[C@@H](O)C(C)(C)[C@H]4C[C@H](OC(C)=O)[C@]3(C2)[C@@H]1O
[2]
  Activity: inactive

## CC(C)c1cc2c(cc1O)C(=O)C[C@H]1[C@@](C)(CO)CCC[C@]21C
[2]
  Activity: inactive
[1]
  inhibition: Dose-Dependent Effect

## CC1(C)CC[C@]2(C(=O)O)CC[C@]3(C)C(=C2C1)CCC1[C@@]2(C)C[C@@H](O)[C@H](O)C(C)(C)[C@@H]2CC[C@]13C (stereo partly specified)
[2]
  Activity: inactive

## C=C1[C@@H]2CC[C@H]3[C@]4(C)CCC[C@](C)(CO)[C@H]4C[C@H](O)[C@]3(C2)[C@@H]1O
[2]
  Activity: inactive

## CC(C)c1cc2c(cc1O)C(=O)C[C@H]1C(C)(C)CCC[C@]21C
[2]
  Activity: inactive
[1]
  inhibition: Dose-Dependent Effect
[6]
  Activity: 86%
[7]
  Activity: Dose-Dependent Effect

## CC(C)c1cc2c(cc1O)[C@@]1(C)CCC[C@](C)(CO)[C@@H]1C=C2
[2]
  Activity: inactive

## CC(C)[C@H]1CC[C@H]2[C@@H](CC[C@H]3C(C)(C)CCC[C@]23C)C1
[1]
  inhibition: Active

## CC(C)c1c(O)ccc2c1CC[C@H]1C(C)(C)[C@@H](O)CC[C@]21C
[2]
  Activity: inactive

## CC1(C)CC[C@]2(C(=O)O)CC[C@]3(C)C(=CC[C@@H]4[C@@]5(C)C[C@@H](O)[C@H](O)C(C)(C)[C@@H]5CC[C@]43C)[C@@H]2C1
[2]
  Activity: inactive

## CC(C)c1ccc2c(c1O)CC[C@@H]1[C@@](C)(CO)CCC[C@@]21C
[2]
  Activity: inactive
[1]
  inhibition: Dose-Dependent Effect
[6]
  Activity: 94%
[7]
  Activity: Dose-Dependent Effect

## C[C@@H]1CC[C@]2(C(=O)O)CC[C@]3(C)C(=CC[C@@H]4[C@@]5(C)C(CO)=CC(C)(C)[C@@H]5CC[C@]43C)[C@@H]2[C@]1(C)O [HYPTASIENIC ACID]
[2]
  Activity: inactive
[3]
  IC50: 7.4 µM
[4]
  IC50: > 10 µM
[8]
  IC50: > 10 µM
[5]
  IC50: > 10 µM

## CC1(C)CC[C@]2(C(=O)O)CC[C@]3(C)C(=CCC4[C@@]5(C)C[C@@H](O)[C@H](OC(=O)/C=C/c6ccc(O)cc6)C(C)(C)[C@@H]5CC[C@]43C)C2C1 (stereo partly specified)
[2]
  Activity: inactive

## C=C1C(=O)O[C@H]2C3=CC[C@@H]4C(C)(C)C(=O)CC[C@@]4(C)[C@@H]3CC[C@@H]12
[2]
  Activity: inactive
[3]
  IC50: > 10 µM
[4]
  IC50: > 10 µM
[8]
  IC50: > 10 µM
[5]
  IC50: 7.3 µM

## C[C@@H]1CC[C@]2(C(=O)O)CC[C@]3(C)C(=CCC4[C@@]5(C)C[C@@H](O)[C@H](OC(=O)/C=C/c6ccc(O)cc6)C(C)(C)[C@@H]5CC[C@]43C)C2[C@H]1C (stereo partly specified)
[2]
  Activity: inactive

## CC1(C)CC[C@]2(C(=O)O)CC[C@]3(C)C(=C2C1)C=CC1[C@@]2(C)C[C@@H](O)[C@H](O)C(C)(C)[C@@H]2CC[C@]13C (stereo partly specified)
[2]
  Activity: inactive

— ChEMBL document CHEMBL5316368, “Di- and Triterpenoids from the Rhizomes of Isodon amethystoides and Their Anti-inflammatory Activities” (J Nat Prod, 2023)
